Structures can show the parent of a compound that is named as a salt.
Tests used:
[1] = Physical properties on exposure to moisture in room air; assay type: physicochemical; details: normal room air
From the text: It is also an advantage in that the compounds of the present invention have preferred physical properties as compared to compounds known in the art. […] In contrast, NIL, which is disclosed in WO 93/13055 when the hydrochloride salt can be isolated as a colorless crystal, but has the property of deliquescence. The compound quickly becomes a very viscous sticky oil upon exposure to moisture in normal room air which makes it difficult to handle.

[2] = target: Human inducible NOS (hiNOS) (Homo sapiens, UniProt P35228); assay: Citrulline assay for nitric oxide synthase, hiNOS; assay type: biochemical
Human inducible NOS (hiNOS), sequence (P35228 whole entry): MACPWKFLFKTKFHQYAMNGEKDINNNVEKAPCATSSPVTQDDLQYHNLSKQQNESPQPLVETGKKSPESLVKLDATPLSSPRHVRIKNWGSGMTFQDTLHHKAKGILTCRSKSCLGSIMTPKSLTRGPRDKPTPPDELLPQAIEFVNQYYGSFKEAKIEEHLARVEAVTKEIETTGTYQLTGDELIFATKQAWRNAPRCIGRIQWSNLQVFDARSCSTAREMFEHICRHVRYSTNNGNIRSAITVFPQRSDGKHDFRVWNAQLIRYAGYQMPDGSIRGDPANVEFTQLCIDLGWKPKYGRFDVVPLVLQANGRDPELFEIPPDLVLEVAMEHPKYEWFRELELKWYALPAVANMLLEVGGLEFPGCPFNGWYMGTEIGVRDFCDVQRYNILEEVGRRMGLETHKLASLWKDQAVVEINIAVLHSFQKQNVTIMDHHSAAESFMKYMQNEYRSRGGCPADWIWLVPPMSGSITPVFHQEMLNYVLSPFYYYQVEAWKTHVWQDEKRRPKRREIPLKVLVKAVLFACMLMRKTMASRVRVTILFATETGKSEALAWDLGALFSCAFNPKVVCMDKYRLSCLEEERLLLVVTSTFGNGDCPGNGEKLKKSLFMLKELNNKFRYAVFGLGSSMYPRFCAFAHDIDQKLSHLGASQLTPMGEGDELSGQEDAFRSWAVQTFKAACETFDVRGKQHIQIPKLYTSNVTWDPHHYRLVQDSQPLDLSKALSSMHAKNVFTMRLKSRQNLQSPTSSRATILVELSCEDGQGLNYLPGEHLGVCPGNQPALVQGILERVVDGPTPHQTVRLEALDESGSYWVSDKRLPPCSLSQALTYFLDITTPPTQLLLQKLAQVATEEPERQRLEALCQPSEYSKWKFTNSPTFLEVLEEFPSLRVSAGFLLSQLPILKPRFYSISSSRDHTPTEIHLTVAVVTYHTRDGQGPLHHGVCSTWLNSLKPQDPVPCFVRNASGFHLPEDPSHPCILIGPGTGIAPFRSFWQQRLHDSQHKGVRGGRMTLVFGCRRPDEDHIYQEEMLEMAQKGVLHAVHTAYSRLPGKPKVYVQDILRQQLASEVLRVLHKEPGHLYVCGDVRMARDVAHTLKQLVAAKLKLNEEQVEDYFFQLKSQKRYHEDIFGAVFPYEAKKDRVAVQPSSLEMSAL
Method: Citrulline Assay for Nitric Oxide Synthase Nitric oxide synthase activity was measured by monitoring the conversion of L-[2,3-3H]-arginine to L-[2,3-3H]-citrulline (1,2). […] For constitutive NOS, calmodulin was included at a final concentration of 40-100 nM. Following incubation at 37° C. for 15 minutes, the reaction was terminated by addition of 300 μL cold buffer containing 10 mM EGTA, 100 mM HEPES (pH5.5) and 1.0 mM L-citrulline. The [3H]-citrulline was separated by chromatography on Dowex 50W X-8 cation exchange resin and radioactivity quantified with a liquid scintillation counter.

Row | SMILES | physical form / behaviour on exposure to moisture [1] | Selectivity ([2]; hiNOS over hecNOS) | selectivity compared with NIL ([2]; in words) | IC50 ([2]; recombinant enzyme, L-arginine to L-citrulline conversion, 37° C., 15 minutes) [µM]
1 | CC(N)=NCCCC[C@@H](N)C(=O)O [NIL, reference compound] | deliquescence | – | – | –
2 | CC(=N)NCCCC[C@H](N)C(=O)Nc1nnn[nH]1 [Example 1, 2S-amino-6-[(1-iminoethyl)amino]-N-(1H-tetrazol-5-yl) hexanamide, Hydrate, Dihydrochloride] | crystalline product | 113 | more selective than NIL | 21.4
